The test system of the experiment is HeLa cells. Description: CCK-8 cell viability after light irradiation (dose-dependent PDT effect). The settings on record: 660 nm LED 30 mW cm−2 for 10 minutes. The experiment is classed as cell-based, human. How it is done:
In order to determine viability of cells treated with FA-MnO2, HeLa cells (1×10^4 cells/well) were prepared in three (3) 96-well plates for 24 hours, and cultured with FA-MnO2 at different concentrations as well as a complete medium. After incubation for 12 hours, the cells were gently washed with 1×PBS and CCK-8 analysis solution as well as a serum-free medium were added thereto for one hour, followed by measuring absorbance at wavelengths of 450 nm and 670 nm using a micro-plate reader (Molecular Devices, Inc., USA).
Next, in order to determine quantitative cell viability associated with photodynamic effects of FA-MnO2/ZnPc, HeLa cells (1×10^4 cells/well) were seeded on a 96-well plate, incubated for 24 hours, and then, treated with FA-MnO2/ZnPc and ZnPc at various concentrations. After the incubation for 12 hours, each well was irradiated with 660 nm LED (Mikwang Electronics, Korea) at 30 mW cm^−2 for 10 minutes. After additional incubation in a serum-containing medium for 12 hours, analysis of CCK-8 cell vitality was assessed in the same manner as described above.

We go through 1 compound from patent US20210085789A1, “PHARMACEUTICAL COMPOSITION FOR CANCER TREATMENT” (SEOUL NATIONAL UNIVERSITY R&DB FOUNDATION, priority 2017, published 2021).

The structures appear in SMILES notation.

For `[Zn+2].c1ccc2c(c1)-c1nc-2nc2[n-]c(nc3nc([n-]c4nc(n1)-c1ccccc1-4)-c1ccccc1-3)c1ccccc21` [ZnPc, zinc phthalocyanine], the concentration for half-maximal inhibition (IC50) (as a rule, the point on the concentration scale where inhibition reaches its midpoint) was 115.1 ± 3.4 µg/mL.
